Laboratory results from ChEMBL document CHEMBL6134817, “Novel gut-restricted bivalent agonists targeting mucosal 5-HT4R: Design, synthesis, and biological evaluation” (Eur J Med Chem, 2025).
Activity calls are given as the source filed them. No cut-off for these calls is given here.

What was measured:
[1] = Stability in SIF at pH 6.8 assessed as half life by LC-MS/MS analysis; assay type: physicochemical
[2] = molecular target: T1, 5-hydroxytryptamine receptor 1A (Homo sapiens, UniProt P08908); assay: Inhibition of 5-HT1AR (unknown origin)
T1 sequence (P08908 whole entry): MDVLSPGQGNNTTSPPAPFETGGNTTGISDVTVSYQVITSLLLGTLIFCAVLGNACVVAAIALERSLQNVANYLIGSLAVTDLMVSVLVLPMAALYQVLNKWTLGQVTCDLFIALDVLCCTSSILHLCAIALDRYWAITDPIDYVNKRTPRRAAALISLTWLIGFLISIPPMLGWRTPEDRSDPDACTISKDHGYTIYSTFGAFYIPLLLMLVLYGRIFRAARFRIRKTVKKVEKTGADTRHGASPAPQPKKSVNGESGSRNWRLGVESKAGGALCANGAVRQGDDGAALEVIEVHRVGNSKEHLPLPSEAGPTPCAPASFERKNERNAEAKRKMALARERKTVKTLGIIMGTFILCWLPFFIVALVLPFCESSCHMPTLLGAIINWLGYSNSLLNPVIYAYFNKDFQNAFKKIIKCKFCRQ

[3] = Stability in mouse plasma assessed as half life measured up to 120 mins by LC-MS/MS analysis; assay type: ADME, cell-free
[4] = Metabolic stability in mouse liver microsomes assessed as intrinsic clearance measured per mg protein at 10 uM measured up to 60 mins in presence of NADPH by LC-MS/MS analysis; assay type: ADME, Microsome; conditions: read-out: CLH
[5] = Permeability of compound assessed as compound recovery at 10 uM incubated for 4 hrs by PAMPA; assay type: ADME; conditions: read-out: Drug recovery
[6] = molecular target: T2, 5-hydroxytryptamine receptor 2C (Homo sapiens, UniProt P28335); assay: Inhibition of 5-HT2CR (unknown origin)
T2 sequence (P28335 whole entry): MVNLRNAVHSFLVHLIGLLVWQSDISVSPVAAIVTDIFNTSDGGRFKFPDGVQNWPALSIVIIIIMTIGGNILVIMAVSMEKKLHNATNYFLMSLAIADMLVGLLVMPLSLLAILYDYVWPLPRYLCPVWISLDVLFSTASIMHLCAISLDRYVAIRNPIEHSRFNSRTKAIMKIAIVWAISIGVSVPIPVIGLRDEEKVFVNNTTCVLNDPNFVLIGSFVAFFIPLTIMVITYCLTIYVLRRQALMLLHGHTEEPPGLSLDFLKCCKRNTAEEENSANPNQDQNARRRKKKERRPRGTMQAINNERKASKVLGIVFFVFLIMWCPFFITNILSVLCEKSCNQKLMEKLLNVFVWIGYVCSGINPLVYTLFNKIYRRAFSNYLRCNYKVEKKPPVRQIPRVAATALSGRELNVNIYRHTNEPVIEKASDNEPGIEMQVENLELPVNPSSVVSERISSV

Mus musculus [7] = assay: Anti-constipation effect in mouse assessed as increase in fecal output at 3 to 10 mg/kg, po measured after 1 hr; assay type: functional, organism-based; conditions: dose 3-10 mg/kg
[8] = molecular target: T3, 5-hydroxytryptamine receptor 4 (Homo sapiens, UniProt Q13639); assay: Inhibition of 5-HT4R (unknown origin)
T3 sequence (Q13639 whole entry): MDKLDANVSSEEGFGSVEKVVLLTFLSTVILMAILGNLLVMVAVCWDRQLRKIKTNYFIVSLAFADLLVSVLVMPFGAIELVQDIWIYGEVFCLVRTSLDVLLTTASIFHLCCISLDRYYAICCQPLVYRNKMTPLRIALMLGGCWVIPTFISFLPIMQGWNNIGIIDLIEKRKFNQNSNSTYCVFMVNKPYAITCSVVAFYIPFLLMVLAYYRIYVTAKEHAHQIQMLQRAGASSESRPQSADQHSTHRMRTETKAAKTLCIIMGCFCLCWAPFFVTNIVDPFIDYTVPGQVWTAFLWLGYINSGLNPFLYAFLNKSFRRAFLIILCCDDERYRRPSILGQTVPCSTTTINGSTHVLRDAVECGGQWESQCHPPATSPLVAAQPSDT

[9] = Cmax in fasted male C57BL/6J mouse at 10 mg/kg, po measured after 1 hr by LC-MS/MS analysis; assay type: ADME, organism-based; conditions: in vivo
[10] = Metabolic stability in human liver microsomes assessed as intrinsic clearance measured per mg protein at 10 uM measured up to 60 mins in presence of NADPH by LC-MS/MS analysis; assay type: ADME, Microsome; conditions: read-out: CLH
[11] = Metabolic stability in human liver microsomes assessed as half life at 10 uM measured up to 60 mins in presence of NADPH by LC-MS/MS analysis; assay type: ADME, Microsome
[12] = molecular target: T3, 5-hydroxytryptamine receptor 4; assay: Displacement of [3H]-GR113808 from full-length human 5-HT4R stably expressed in HEK293 cell membrane by MicroBeta2 Reader analysis; assay type: cell membranes
[13] = Metabolic stability in mouse liver microsomes assessed as half life at 10 uM measured up to 60 mins in presence of NADPH by LC-MS/MS analysis; assay type: ADME, Microsome
[14] = molecular target: T3, 5-hydroxytryptamine receptor 4; assay: Agonist activity at full-length human 5-HT4R stably expressed in HEK293 cells assessed as increase in intracellular cAMP level incubated for 30 mins under dark condition by reporter gene assay relative to control; assay type: functional, cell-based; conditions: filed as agonist
[15] = Metabolic stability in rat liver microsomes assessed as intrinsic clearance measured per mg protein at 10 uM measured up to 60 mins in presence of NADPH by LC-MS/MS analysis; assay type: ADME, Microsome; conditions: read-out: CLH
[16] = molecular target: 5-hydroxytryptamine receptor 1B (Homo sapiens, UniProt P28222); assay: Inhibition of 5-HT1BR (unknown origin)
5-hydroxytryptamine receptor 1B, sequence (P28222 whole entry): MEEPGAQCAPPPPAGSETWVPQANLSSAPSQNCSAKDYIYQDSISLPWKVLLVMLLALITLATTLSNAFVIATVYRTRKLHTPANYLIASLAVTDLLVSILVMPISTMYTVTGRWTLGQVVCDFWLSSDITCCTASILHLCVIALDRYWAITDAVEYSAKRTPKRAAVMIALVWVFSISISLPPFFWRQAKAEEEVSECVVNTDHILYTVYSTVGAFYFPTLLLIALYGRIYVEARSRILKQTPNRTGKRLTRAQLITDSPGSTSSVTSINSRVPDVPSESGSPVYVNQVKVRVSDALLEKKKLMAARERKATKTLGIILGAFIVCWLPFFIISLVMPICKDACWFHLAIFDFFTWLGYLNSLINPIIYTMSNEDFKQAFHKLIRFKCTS

[17] = Apparent permeability coefficient of compound at 10 uM incubated for 4 hrs by PAMPA; assay type: ADME
[18] = molecular target: Voltage-gated inwardly rectifying potassium channel KCNH2 (Homo sapiens, UniProt Q12809); assay: Inhibition of hERG stably expressed in HEK293 cells by patch-clamp method; assay type: toxicity, cell-based
Voltage-gated inwardly rectifying potassium channel KCNH2, sequence (Q12809 whole entry): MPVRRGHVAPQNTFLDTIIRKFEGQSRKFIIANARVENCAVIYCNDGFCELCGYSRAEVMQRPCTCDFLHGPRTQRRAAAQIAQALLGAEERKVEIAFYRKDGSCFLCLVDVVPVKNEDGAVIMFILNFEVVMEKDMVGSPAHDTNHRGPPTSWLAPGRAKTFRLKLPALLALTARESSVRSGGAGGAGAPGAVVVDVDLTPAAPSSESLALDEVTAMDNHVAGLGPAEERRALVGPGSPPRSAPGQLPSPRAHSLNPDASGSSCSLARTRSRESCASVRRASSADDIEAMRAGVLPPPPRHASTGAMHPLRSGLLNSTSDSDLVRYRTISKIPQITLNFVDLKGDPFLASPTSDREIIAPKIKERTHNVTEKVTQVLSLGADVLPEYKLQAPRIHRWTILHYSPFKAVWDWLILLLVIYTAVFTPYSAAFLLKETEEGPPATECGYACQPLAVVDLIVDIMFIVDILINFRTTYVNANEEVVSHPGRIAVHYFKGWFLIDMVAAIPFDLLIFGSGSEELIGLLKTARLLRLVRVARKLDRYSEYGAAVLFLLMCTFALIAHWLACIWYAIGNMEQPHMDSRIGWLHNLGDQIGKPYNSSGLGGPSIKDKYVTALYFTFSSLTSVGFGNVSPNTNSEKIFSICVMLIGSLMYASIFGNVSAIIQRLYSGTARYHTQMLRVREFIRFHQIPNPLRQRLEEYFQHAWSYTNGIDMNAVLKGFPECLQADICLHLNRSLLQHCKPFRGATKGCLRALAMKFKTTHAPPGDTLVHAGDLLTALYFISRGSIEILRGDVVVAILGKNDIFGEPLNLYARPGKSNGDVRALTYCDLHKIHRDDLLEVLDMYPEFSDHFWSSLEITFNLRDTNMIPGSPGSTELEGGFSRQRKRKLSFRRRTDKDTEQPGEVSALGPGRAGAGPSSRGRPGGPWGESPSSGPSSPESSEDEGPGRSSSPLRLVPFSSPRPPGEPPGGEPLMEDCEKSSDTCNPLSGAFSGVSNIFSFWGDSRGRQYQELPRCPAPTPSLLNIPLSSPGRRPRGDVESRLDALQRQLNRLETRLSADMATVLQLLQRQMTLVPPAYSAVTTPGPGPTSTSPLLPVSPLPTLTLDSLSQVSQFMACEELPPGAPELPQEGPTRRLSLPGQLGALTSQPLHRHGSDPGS

[19] = molecular target: Serotonin 3 (5-HT3) receptor; assay: Inhibition of 5-HT3R (unknown origin); assay type: protein-complex assay, Homo sapiens
[20] = Metabolic stability in rat liver microsomes assessed as half life at 10 uM measured up to 60 mins in presence of NADPH by LC-MS/MS analysis; assay type: ADME, Microsome
[21] = molecular target: 5-hydroxytryptamine receptor 2A (Homo sapiens, UniProt P28223); assay: Inhibition of 5-HT2AR (unknown origin)
5-hydroxytryptamine receptor 2A, sequence (P28223 whole entry): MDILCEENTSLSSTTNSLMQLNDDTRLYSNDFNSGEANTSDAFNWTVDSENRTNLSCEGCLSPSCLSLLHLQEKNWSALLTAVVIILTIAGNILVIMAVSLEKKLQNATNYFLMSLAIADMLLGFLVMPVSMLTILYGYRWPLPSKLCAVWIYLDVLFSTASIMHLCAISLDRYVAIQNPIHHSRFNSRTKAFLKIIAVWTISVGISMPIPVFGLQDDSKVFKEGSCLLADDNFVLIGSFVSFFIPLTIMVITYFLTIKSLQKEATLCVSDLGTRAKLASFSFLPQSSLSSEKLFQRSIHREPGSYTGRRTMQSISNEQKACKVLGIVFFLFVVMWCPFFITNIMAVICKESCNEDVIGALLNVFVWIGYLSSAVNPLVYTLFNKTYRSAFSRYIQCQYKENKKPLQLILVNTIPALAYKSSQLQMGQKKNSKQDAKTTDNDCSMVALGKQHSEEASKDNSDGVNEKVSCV

[22] = molecular target: 5-hydroxytryptamine receptor 7 (Homo sapiens, UniProt P34969); assay: Inhibition of 5-HT7R (unknown origin)
5-hydroxytryptamine receptor 7, sequence (P34969 whole entry): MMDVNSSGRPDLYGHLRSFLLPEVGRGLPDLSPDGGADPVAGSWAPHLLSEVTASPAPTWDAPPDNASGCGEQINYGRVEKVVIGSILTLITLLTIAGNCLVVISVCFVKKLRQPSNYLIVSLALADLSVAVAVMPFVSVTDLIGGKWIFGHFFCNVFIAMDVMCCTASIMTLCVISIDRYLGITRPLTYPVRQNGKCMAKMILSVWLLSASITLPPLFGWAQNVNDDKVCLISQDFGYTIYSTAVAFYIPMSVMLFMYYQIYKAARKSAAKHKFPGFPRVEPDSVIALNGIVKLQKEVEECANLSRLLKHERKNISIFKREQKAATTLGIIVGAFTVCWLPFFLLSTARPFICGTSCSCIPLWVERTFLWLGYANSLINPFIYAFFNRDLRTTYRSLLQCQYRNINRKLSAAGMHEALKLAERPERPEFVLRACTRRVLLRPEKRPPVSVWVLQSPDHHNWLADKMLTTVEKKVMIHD

[23] = Drug excretion in fasted male Sprague-Dawley rat at 5 mg/kg, po measured for 24 hrs by LC-MS/MS analysis; assay type: ADME, organism-based; conditions: in vivo, read-out: Drug excretion
Mus musculus [24] = assay: Anti-constipation effect in mouse assessed as increase in fecal water content at 3 to 10 mg/kg, po measured after 1 hr; assay type: functional, organism-based; conditions: dose 3-10 mg/kg
[25] = molecular target: 5-hydroxytryptamine receptor 6 (Homo sapiens, UniProt P50406); assay: Inhibition of 5-HT6R (unknown origin)
5-hydroxytryptamine receptor 6, sequence (P50406 whole entry): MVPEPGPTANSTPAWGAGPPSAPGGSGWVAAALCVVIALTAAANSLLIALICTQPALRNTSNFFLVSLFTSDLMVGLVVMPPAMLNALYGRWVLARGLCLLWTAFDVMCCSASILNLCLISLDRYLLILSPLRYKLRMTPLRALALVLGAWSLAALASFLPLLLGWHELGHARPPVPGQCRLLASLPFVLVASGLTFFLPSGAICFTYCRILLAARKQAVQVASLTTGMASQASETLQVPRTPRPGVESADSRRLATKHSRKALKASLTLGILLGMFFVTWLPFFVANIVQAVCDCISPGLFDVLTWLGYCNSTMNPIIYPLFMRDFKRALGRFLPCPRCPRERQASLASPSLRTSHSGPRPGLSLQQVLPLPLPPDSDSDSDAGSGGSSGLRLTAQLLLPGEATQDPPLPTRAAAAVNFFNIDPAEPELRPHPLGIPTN

Mus musculus [26] = assay: Anti-constipation effect in mouse assessed as decrease in bead expulsion time at 3 to 15 mg/kg, po pretreated with compound 1 hr prior to glass bead insertion into distal colon measured after regaining conscious; assay type: functional, organism-based; conditions: dose 3-15 mg/kg
[27] = Drug excretion in feces of fasted male Sprague-Dawley rat at 5 mg/kg, po measured for 24 hrs by LC-MS/MS analysis; assay type: ADME, organism-based; conditions: faeces, read-out: Drug excretion
[28] = Stability in SGF at pH 1.5 assessed as half life by LC-MS/MS analysis; assay type: physicochemical
[29] = molecular target: T3, 5-hydroxytryptamine receptor 4; assay: Agonist activity at full-length human 5-HT4R stably expressed in HEK293 cells assessed as increase in intracellular cAMP level incubated for 30 mins under dark condition by reporter gene assay; assay type: functional, cell-based
[30] = molecular target: 5-hydroxytryptamine receptor 5A (Homo sapiens, UniProt P47898); assay: Inhibition of 5-HT5R (unknown origin)
5-hydroxytryptamine receptor 5A, sequence (P47898 whole entry): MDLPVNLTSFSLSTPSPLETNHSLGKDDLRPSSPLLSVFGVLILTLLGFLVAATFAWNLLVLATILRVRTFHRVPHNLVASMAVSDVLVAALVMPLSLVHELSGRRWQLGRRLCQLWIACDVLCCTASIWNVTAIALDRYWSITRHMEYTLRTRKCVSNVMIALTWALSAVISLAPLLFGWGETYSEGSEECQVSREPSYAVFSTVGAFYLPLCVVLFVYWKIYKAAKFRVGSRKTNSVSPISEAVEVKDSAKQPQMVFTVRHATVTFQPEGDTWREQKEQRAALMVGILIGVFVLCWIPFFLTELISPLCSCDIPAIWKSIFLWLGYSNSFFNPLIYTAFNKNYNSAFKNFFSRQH

[31] = molecular target: 5-hydroxytryptamine receptor 2B (Homo sapiens, UniProt P41595); assay: Inhibition of 5-HT2BR (unknown origin)
5-hydroxytryptamine receptor 2B, sequence (P41595 whole entry): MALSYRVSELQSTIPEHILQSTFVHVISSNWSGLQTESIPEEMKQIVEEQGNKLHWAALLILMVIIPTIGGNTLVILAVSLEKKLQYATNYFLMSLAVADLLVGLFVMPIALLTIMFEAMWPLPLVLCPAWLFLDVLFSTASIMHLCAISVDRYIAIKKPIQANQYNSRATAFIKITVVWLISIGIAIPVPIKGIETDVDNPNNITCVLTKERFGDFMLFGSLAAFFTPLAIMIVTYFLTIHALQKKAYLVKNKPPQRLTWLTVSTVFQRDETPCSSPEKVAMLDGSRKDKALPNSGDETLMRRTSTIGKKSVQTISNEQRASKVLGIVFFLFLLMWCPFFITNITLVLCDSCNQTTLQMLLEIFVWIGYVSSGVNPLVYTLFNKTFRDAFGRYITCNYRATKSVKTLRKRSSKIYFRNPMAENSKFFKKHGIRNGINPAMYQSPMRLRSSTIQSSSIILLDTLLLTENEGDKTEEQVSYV

Mus musculus [32] = assay: Induction of whole-gut transit in mouse assessed as decrease in time for carmine red dye excretion administered orally via gavage measured for every 5 mins; assay type: functional, organism-based; conditions: dose 3-15 mg/kg, route po

Nc1c(Cl)cc(C(=O)NCC2CCN(CCCCCC(=O)NCCOCCOCCNC(=O)NCCCCNC(=O)NCCOCCOCCNC(=O)CCCCCN3CCC(CNC(=O)c4cc(Cl)c(N)c5c4OCC5)CC3)CC2)c2c1CCO2
half-life [1]: > 24 h | IC50 [2]: > 10 µM | half-life [3]: 3.06 h | microsomal CLint at 10 µM [4]: 3 µL/min/mg | recovery at 4 h, 10 µM [5]: 83.1% | IC50 [6]: > 10 µM | Activity (Mus musculus [7]): Active; Efficacy Comparable To Prucalopride Succinate At 10 Mg/Kg | IC50 [8]: 25.1 µM | Cmax [9]: 8.5 ng/mL | microsomal CLint at 10 µM [10]: 64.8 µL/min/mg | half-life at 10 µM [11]: 0.356 h | Ki [12]: 0.0131 µM | half-life at 10 µM [13]: 7.7 h | Efficacy [14]: 99.6% | microsomal CLint at 10 µM [15]: 5 µL/min/mg | IC50 [16]: > 10 µM | Papp at 4 h, 10 µM [17]: 3.1 ×10⁻⁶ cm/s | IC50 [18]: > 100 µM | IC50 [19]: > 10 µM | half-life at 10 µM [20]: 4.62 h | IC50 [21]: > 1 µM | IC50 [22]: > 10 µM | dose excreted at 24 h [23]: ~100% | Activity (Mus musculus [24]): Active; Efficacy Comparable To Prucalopride Succinate At 10 Mg/Kg | IC50 [25]: > 1 µM | Activity (Mus musculus [26]): Active | dose excreted at 24 h [27]: ~100% | half-life [28]: > 24 h | EC50 [29]: 0.00041 µM | IC50 [30]: > 10 µM | IC50 [31]: > 1 µM | Activity (Mus musculus [32]): Dose-dependent-effect; Superior To Prucalopride Succinate At 10 Mg/Kg
